Patent publication US20250374923A1 (priority 2022, published 2025)
Values joined by “and” are separate entries in the source; they are usually repeats but may differ in a detail not shown here. Equal values may be shown once. Where a name gives a salt, the structure may show the parent alone.

Assays:
citrus greening [1] = assay: Example 1 field trial: BRIX analysis of fruit; conditions: fruit collected December 8
Text: (§1) Field trial design. […] Treatments included the application of oxytetracycline (OTC) using Invaio's proprietary injection system into the scion of each tree. The trial was designed as a randomized complete blocking which three treatments were applied to each of four trees within each of six replications at three different treatment dates. […] The OTC is a commercial oxytetracycline product. One injection of OTC was made in each tree for the first two injections timings and two OTC injections were made per tree at the third application timing.
BRIX analysis. Fruit was collected from trees of each treatment by replication on December 8 and bulked according to treatment and replication to create individual fruit samples for BRIX analysis.

citrus greening [2] = conditions: average across six replications; harvested December 21
Text: (§2) Treatments included the application of oxytetracycline (OTC) using Invaio's proprietary injection system into the scion of each tree. The trial was designed as a randomized complete blocking which three treatments were applied to each of four trees within each of six replications at three different treatment dates. […] The OTC is a commercial oxytetracycline product. One injection of OTC was made in each tree for the first two injections timings and two OTC injections were made per tree at the third application timing.
Fruit yield. Fruit yield was determined for trees of each treatment as the total weight (lbs) of fruit picked (harvested) from each tree on December 21. Fruit yield was recorded as an average by replication and as an average across all six replications (Table 3).

citrus greening [3] = assay: Example 1 field trial: fruit drop
Text: as §1
Fruit drop. Fruit drop was determined for trees of each treatment as the number of fruit on the ground underneath each tree at each of six counting dates, approximately 2 weeks apart, beginning on October 13 and finishing prior to fruit harvest on December 21. Counted fruit were removed from the ground after each counting date. Fruit drop was recorded as an average by date and as an average across all six dates (Table 4).

[4] = average of six replications; fruit collected December 7
Text: as §2
Fruit was collected from trees of the OTC treatment by replication on December 7 and bulked according to treatment and replication to create individual fruit samples for OTC residue analysis. Similarly, fruit was collected from trees from two replications of nontreated treatments and bulked by replication to create individual fruit samples for OTC residue analysis.

citrus greening [5] = system: citrus greening
Experimental: The treatment delivered 150 mg OTC-HCl per season.
The treatment delivered 600 mg OTC-HCl per season.

SMILES | Brix, treatment average (citrus greening [1]; average of six replications) | Brix (citrus greening [1]; by replication, OTC 1.58 mg/mL, 60 ml scion injections) | Fruit yield (lbs per tree), treatment average (citrus greening [2]) | Fruit drop (number), treatment average (citrus greening [3]; average across replications and dates) | Fruit drop (number), rep average across dates (citrus greening [3]; average of six counting dates, by replication) | Fruit drop (number) (citrus greening [3]; counting date 8-Dec, by replication) | Fruit drop (number) (citrus greening [3]; counting date 9-Nov, by replication) | Fruit drop (number) (citrus greening [3]; counting date 13-Oct, by replication) | Fruit drop (number) (citrus greening [3]; counting date 21-Dec, by replication) | Fruit drop (number) (citrus greening [3]; counting date 24-Nov, by replication) | Fruit drop (number) (citrus greening [3]; counting date 28-Oct, by replication) | OTC residue in fruit, treatment average [4] | yield increase over water (citrus greening [5]; 150 mg OTC-HCl per season (FIG. 30)) | yield increase over the nontreated controls (citrus greening [5]; 600 mg OTC-HCl per season (FIG. 31))
CN(C)[C@@H]1C(O)=C(C(N)=O)C(=O)[C@@]2(O)C(O)=C3C(=O)c4c(O)cccc4[C@@](C)(O)[C@H]3[C@H](O)[C@@H]12 [OTC, oxytetracycline] | 8.0 | 8.1 and 8.4 and 8 and 7.6 | 48.7 lbs per tree and 50.4 lbs per tree | 17.8 number | 20.9 number and 20.5 number and 16.0 number and 17.1 number and 14.5 number and 18.0 number | 19.0 number and 13.3 number and 14.0 number and 12.3 number and 15.0 number and 22.8 number | 31.5 number and 20.5 number and 23.8 number and 18.5 number and 22.0 number and 28.0 number | 11.5 number and 8.8 number and 9.0 number and 7.3 number and 14.5 number and 14.3 number | 17.5 number and 20.0 number and 16.5 number and 16.8 number and 12.0 number and 15.0 number | 26.8 number and 18.3 number and 20.8 number and 21.8 number and 28.0 number | 14.5 number and 18.8 number and 18.3 number and 16.3 number and 19.8 number and 15.0 number | 0.007 ppm and 0.006616 ppm |  | 
CN(C)[C@@H]1C(O)=C(C(N)=O)C(=O)[C@@]2(O)C(O)=C3C(=O)c4c(O)cccc4[C@@](C)(O)[C@H]3[C@H](O)[C@@H]12 [OTC-HCl, oxytetracycline hydrochloride] |  |  |  |  |  |  |  |  |  |  |  |  | about 74% | ~53%
